From US7811609B2, “Use of metal compounds to treat gastrointestinal infections” (priority 2000, dated 2010)
Where two headings read alike, the source gives them in different places. One block for each compound: values may come before it.

What was measured:
[1] = tested on: Helicobacter pylori; test: MIC against Helicobacter pylori by two fold serial dilution in growth medium; assay type: cell-based; conditions: for Mean ratio pH 4:pH 7, first value: Strain 1 (Chloride: against first pH 7 value); for MIC, Strain 1 (pH 7): pH 7 (first value where two are given); for Mean ratio pH 4:pH 7, second value: Strain 2 (Chloride: Strain 1 against second pH 7 value); for Average Selectivity Ratio: (Sum of MIC values against all bacteria except H. pylori ÷ No. of MIC values) ÷ MIC value for H. pylori
Procedure: (§1) Solutions of metal salts were prepared by dilution of the metal salt, optionally together with the ligand, in ultra-high-purity water. The pH values were adjusted to 7 with concentrated sodium hydroxide. The solutions were γ irradiated for 20 to 30 minutes for sterilisation, and then diluted ten fold in the bacterial growth medium to be used.
(§2) A gradient of concentration was obtained by two fold serial dilutions of the medium. The concentrations of metals were analysed by inductively coupled plasma spectrometry. Each dilution was inoculated with the different bacteria to be tested, by multi-point inoculating on the agar media, or suspending in the broth media.
The presence or absence of bacterial growth was reported within the concentration gradient and the minimum concentration of complex in the medium that inhibits totally the bacterial growth (MIC) was determined. The growth on an agar plate was detected by the presence of colonies, and by turbidity in the broth media. The bacteria were identified by the Gram morphology test. Helicobacter pylori growth was also confirmed by biochemical test on the catalase, urease and oxidase activity.

[2] = tested on: Echerichia coli; test: MIC against Echerichia coli; assay type: cell-based; conditions: for MIC, E. coli: Table 4
[3] = tested on: Staphylococcus aureus; test: MIC against Staphylococcus aureus; assay type: cell-based; conditions: for MIC, Staphylococcus (aureus or Oxford Staph): Table 4
[4] = tested on: Enterococcus faecium; test: MIC against Enterococcus faecium; assay type: cell-based; conditions: Mueller-Hinton agar with 2% horse serum and isosensitest agar with 5% horse blood; several strains
[5] = tested on: Coagulase negative staphylococcus; test: MIC against coagulase negative staphylococcus; assay type: cell-based; conditions: Mueller-Hinton agar with 2% horse serum and isosensitest agar with 5% horse blood; several strains
[6] = tested on: Pseudomonas aeruginosa; conditions: extrapolated from survival rates; protein broth then phosphate-buffered saline; Zhao et al 1998; cited from earlier work
[7] = tested on: Helicobacter pylori; test: Inhibition of Helicobacter pylori growth over time in the STH medium (FIG. 1, cfu/ml against time); assay type: cell-based; conditions: cobalt 2.00 ppm
Excerpt: FIG. 1 is a graph showing the inhibition of H. pylori growth by cobalt (cobaltous chloride) in the STH medium.
I50=inhibition of 50% of the Helicobacter pylori inoculated by cobaltous chloride. Concentration of cobalt in the medium was 2.00 ppm.

[8] = tested on: Klebsiella; test: MIC against Klebsiella; assay type: cell-based; conditions: for MIC, Klebsiella: Table 4
[9] = tested on: Staphylococcus (aureus or Oxford Staph); conditions: extrapolated from survival rates; protein broth then phosphate-buffered saline; Zhao et al 1998; cited from earlier work
[10] = tested on: Pseudomonas aeruginosa; test: MIC against Pseudomonas aeruginosa; assay type: cell-based; conditions: for MIC, Pseudomonas aeruginosa: Table 4
[11] = Tolerance study in patients with H. pylori infection; assay type: in vivo, human; conditions: six patients; 20 mg/day cobalt (10 mg b.d) for two weeks; oral capsules or solution
Procedure: In a tolerance study, six patients with H. pylori infection ingested a low dose of 20 mg/day cobalt, as cobalt chloride (10 mg b.d), for two weeks. […] In one patient the cobalt was taken also with a proton pump inhibitor (Lansoprazole) while the remaining 5 took cobalt alone as capsules (4 patients) or a solution (1 patient). 3 of these patients had gastritis and/or duodenitis with a duodenal ulcer also in one of these three. The other 3 had oesophagitis and/or normal stomach and duodenum.

[12] = tested on: Helicobacter pylori; conditions: for growth in the medium: Ax 0 mg/l
Procedure: as §1, §2
Media were incubated for Helicobacter pylori in a microaerobic atmosphere (gas jar containing a CampyGen® pack, 5% O2-10% CO2-85% N2 by volume) with constant shaking (orbital shaker, 140 rpm) at 37° C. for five days.
The presence or absence of bacterial growth was reported within the concentration gradient and the minimum concentration of complex in the medium that inhibits totally the bacterial growth (MIC) was determined. The growth on an agar plate was detected by the presence of colonies, and by turbidity in the broth media. […] Helicobacter pylori growth was also confirmed by biochemical test on the catalase, urease and oxidase activity.

[13] = tested on: E. coli; conditions: extrapolated from survival rates; protein broth then phosphate-buffered saline; Zhao et al 1998; cited from earlier work
[14] = tested on: other bacteria; test: MIC against other bacteria; assay type: cell-based; conditions: 32 mg/l = estimate limit between active and non-active metals
[15] = tested on: Enterococcus faecalis; test: MIC against Enterococcus faecalis; assay type: cell-based; conditions: for MIC, Ent faecalis: Table 4
[16] = STH broth, NCTC 11637 and seven clinical isolates
[17] = pH 4-7: pH of the media changes during the experiment from acidic start
[18] = Mueller-Hinton agar with 2% horse serum and isosensitest agar with 5% horse blood, several strains

Compound: O=[N+]([O-])[O-].O=[N+]([O-])[O-].O=[N+]([O-])[O-].[Bi+3] [Bi^3+ (bismuth nitrate), bismuth nitrate, reference compound]
MIC [1, 16]: 4 to 8 µg/mL
action against H. pylori (in words) ([1]; Table 2 metals compared with cobalt (II)): active, but only at much higher levels than cobalt (II)

Compound: CC(=O)[O-].CC(=O)[O-].[Co+2] [Co acetate]
Mean ratio pH 4:pH 7, first value [1]: 0.054
MIC, Strain 1 (pH 4) ([1]; Strain 1): 0.11
MIC, Strain 1 (pH 7) ([1]; Strain 1): 2.03
Mean ratio pH 4:pH 7, second value [1]: 0.11
MIC, Strain 2 (pH 4) [1]: 0.11
MIC, Strain 2 (pH 7) ([1]; pH 7): 1.01
MIC, pH 4-7 [1, 17]: 0.125 mg/l
MIC, pH 7 ([1]; pH 7): 0.5-2 mg/l

MIC ([1]; Helicobacter pylori, pH 7, read-out: MIC, pH 7): 1 to 4 µg/mL
MIC ([1]; Helicobacter pylori, pH 4-7: pH of the media changes during the experiment from acidic start, read-out: MIC, pH 4-7): 0.06 to 0.125 µg/mL
MIC, Strain 1 (pH 4) ([1]; Strain 1): <0.04
MIC, Strain 1 (pH 7) ([1]; Strain 1): 1.12
MIC, Strain 2 (pH 4) [1]: 0.09
MIC, Strain 2 (pH 7) ([1]; pH 7): 4.49
Compound: Br [Co bromide]
Mean ratio pH 4:pH 7, first value [1]: 0.036
Mean ratio pH 4:pH 7, second value [1]: 0.02

Compound: O=C([O-])[O-].[Co+2] [Co carbonate]
Mean ratio pH 4:pH 7, first value [1]: 0.048
MIC, Strain 1 (pH 4) ([1]; Strain 1): 0.09
MIC, Strain 1 (pH 7) ([1]; Strain 1): 1.09
Mean ratio pH 4:pH 7, second value [1]: 0.018
MIC, Strain 2 (pH 4) [1]: <0.02
MIC, Strain 2 (pH 7) ([1]; pH 7): 1.09
MIC, pH 4-7 [1, 17]: 0.03-0.125 mg/l
MIC, pH 7 ([1]; pH 7): 0.125-1 mg/l

Compound: [Cl-].[Cl-].[Co+2] [Co chloride, cobalt (II) chloride]
MIC [2, 18]: >32 µg/mL
MIC, E. coli [2]: > 32 µg/mL
MIC [3, 18]: >32 µg/mL
MIC, Staphylococcus (aureus or Oxford Staph) [3]: > 32 µg/mL
MIC [4]: >32 µg/mL
MIC [5]: >32 µg/mL
MIC, Pseudomonas aeruginosa (footnote a) [6]: 2.3^a
time to I50 (inhibition of 50% of the Helicobacter pylori inoculated) [7]: 5 h
time to total inhibition [7]: 8 h
MIC [8, 18]: >32 µg/mL
MIC, Klebsiella [8]: > 32 µg/mL
MIC, Staphylococcus (aureus or Oxford Staph) (footnote a) [9]: 22.97^a
MIC [10, 18]: >32 µg/mL
MIC, Pseudomonas aeruginosa [10]: > 32 µg/mL
Average Selectivity Ratio [1]: 434
MIC [1, 16]: 0.03 to 0.6 µg/mL
MIC (mg/l), median ([1]; STH broth, NCTC 11637 and seven clinical isolates, median): 0.06 mg/L
Mean ratio pH 4:pH 7, first value [1]: 0.5
MIC, Strain 1 (pH 4) ([1]; Strain 1): 0.015
MIC, Strain 1 (pH 7) ([1]; Strain 1): 0.03
MIC, Strain 1 (pH 7), second value ([1]; Strain 1, pH 7, second of x/y): 0.125
Mean ratio pH 4:pH 7, second value [1]: 0.12
MIC, H. pylori, range in brackets ([1]; Table 4): (<0.03-0.125)
MIC, H. pylori ([1]; Table 4, main value): 0.06 µg/mL
activity against H. pylori at pH 4 relative to pH 7 ([1]; Table 5): about 10 fold
kind of action against H. pylori ([1]; found by measuring the MIC): not only bacteriostatic (i.e. inhibitory of growth), but also bactericidal
minimum inhibitory concentration (MIC) ([1]; in vitro, Co^2+ as cobalt chloride): 0.06 µg/mL
MIC, pH 4-7 [1, 17]: 0.03-0.4 mg/l
MIC, pH 7 ([1]; pH 7): 0.06-0.4 mg/l
activity against the H. pylori strain deprived of its urease enzyme ([1]; urease-deprived strain): active
adverse effects [11]: no reported adverse effects
growth in the medium ([12]; Co 0.0015 mg/l): +
growth in the medium ([12]; Co 0.004 mg/l): +
growth in the medium ([12]; Co 0.008 mg/l): +
growth in the medium ([12]; Co 0.030 mg/l): −
growth in the medium ([12]; Co 0.060 mg/l): −
growth in the medium ([12]; Co 0.120 mg/l): −
MIC of cobalt (no amoxycillin) ([12]; no amoxycillin): MIC of cobalt (no amoxycillin): 0.030 mg/l
MIC, E. coli (footnote a) [13]: 22.97^a
activity (MIC) against other bacteria [14]: > 32 µg/mL
MIC [15, 18]: >32 µg/mL
MIC, Ent faecalis [15]: > 32 µg/mL

Compound: [OH][Co][OH] [Co hydroxide]
Mean ratio pH 4:pH 7, first value [1]: 0.058
MIC, Strain 1 (pH 4) ([1]; Strain 1): 0.11
MIC, Strain 1 (pH 7) ([1]; Strain 1): 1.9
Mean ratio pH 4:pH 7, second value [1]: 0.029
MIC, Strain 2 (pH 4) [1]: 0.11
MIC, Strain 2 (pH 7) ([1]; pH 7): 3.80
MIC, pH 4-7 [1, 17]: 0.125 mg/l
MIC, pH 7 ([1]; pH 7): 2-4 mg/l

Compound: O=[N+]([O-])[O-].O=[N+]([O-])[O-].[Co+2] [Co nitrate]
Mean ratio pH 4:pH 7, first value [1]: 0.07
MIC, Strain 1 (pH 4) ([1]; Strain 1): 0.05
MIC, Strain 1 (pH 7) ([1]; Strain 1): 0.69
Mean ratio pH 4:pH 7, second value [1]: 0.08
MIC, Strain 2 (pH 4) [1]: 0.055
MIC, Strain 2 (pH 7) ([1]; pH 7): >0.69
MIC, pH 4-7 [1, 17]: 0.06 mg/l
MIC, pH 7 ([1]; pH 7): 1 mg/l

Compound: O=P([O-])([O-])[O-].O=P([O-])([O-])[O-].[Co+2].[Co+2].[Co+2] [Co phosphate]
MIC, pH 4-7 [1, 17]: 4 mg/l
MIC, pH 7 ([1]; pH 7): 0.8 mg/l

Compound: O=[N+]([O-])[O-].O=[N+]([O-])[O-].O=[N+]([O-])[O-].[Cr+3] [Cr^2+ (chromium nitrate), chromium nitrate, reference compound]
MIC [1, 16]: >32 µg/mL

Compound: [Cl][Cu][Cl] [Cu^2+]
MIC, E. coli [2]: > 32 µg/mL
MIC, Staphylococcus (aureus or Oxford Staph) [3]: > 32 µg/mL
MIC, Pseudomonas aeruginosa (footnote a) [6]: 1.75^a
MIC, Klebsiella [8]: > 32 µg/mL
MIC, Staphylococcus (aureus or Oxford Staph) (footnote a) [9]: 17.15^a
MIC, Pseudomonas aeruginosa [10]: > 32 µg/mL
Average Selectivity Ratio [1]: 1.02
MIC [1, 16]: 16 to 32 µg/mL
MIC, H. pylori ([1]; Table 4): 32
MIC, H. pylori, first of two values ([1]; Table 4): 16
MIC, H. pylori ([1]; Table 4, main value): 24 µg/mL
MIC, E. coli (footnote a) [13]: 17.15^a
MIC, Ent faecalis [15]: > 32 µg/mL
